In ChEMBL document CHEMBL1144705, “Erythrina alkaloids and a pterocarpan from the bark of Erythrina subumbrans” (J Nat Prod, 2008):
Converted amounts (≈) assume the structure as drawn. The source made the active and inactive calls. The rule behind the calls is not given here.

What was measured:
[1] = test system: Mycobacterium tuberculosis; assay: Antimycobacterial activity against Mycobacterium tuberculosis H37Ra by Alamar blue assay; type: functional
[2] = test system: Plasmodium falciparum; assay: Antimalarial activity against multidrug-resistant Plasmodium falciparum K1 by microculture radioisotope assay; type: functional, organism-based
[3] = test system: KB; assay: Cytotoxicity against human KB cells; type: functional, cell-based
[4] = test system: BC; assay: (§1) Cytotoxicity against human BC cells; type: functional, cell-based
[5] = test system: NCI-H187; assay: Cytotoxicity against human NCI-H187 cells; type: functional, cell-based
[6] = as §1; type: functional, cell-based

| Structure (SMILES) | MIC [1] | IC50 [2] | Activity [3] | Activity [4] | Activity [2] | Activity [1] | Activity [5] | IC50 [3] | IC50 [6] | IC50 [5] |
| --- | --- | --- | --- | --- | --- | --- | --- | --- | --- | --- |
| COc1ccc2c(c1)OC[C@@]1(O)c3ccc4c(c3O[C@@H]21)C[C@H](O)C(C)(C)O4 [ERYVARIN A] | 100 µg/mL (≈ 270 µM) |  |  |  |  |  |  |  |  |  |
| CC(C)=CCc1cc([C@@H]2CC(=O)c3c(O)cc(O)cc3O2)cc(CC=C(C)C)c1O [ABYSSINONE V] | 100 µg/mL (≈ 245 µM) | 7 µg/mL (≈ 17.1 µM) |  |  |  |  |  |  |  |  |
| COc1cc2c(cc1OC)[C@]13C[C@@H](OC)[C@H](O)C=C1CCN3C(=O)C2=O |  |  | inactive | inactive | inactive | inactive | inactive |  |  |  |
| CO[C@@H]1C[C@@]23C(=C[C@H]1O)CCN2C(=O)C(=O)c1cc2c(cc13)OCO2 |  |  | inactive | inactive | inactive | inactive | inactive |  |  |  |
| CC(C)=CCc1cc([C@@H]2CC(=O)c3c(O)cc(O)c(CC=C(C)C)c3O2)ccc1O [LESPEDEZAFLAVANONE B] | 100 µg/mL (≈ 245 µM) | 3.7 µg/mL (≈ 9.06 µM) |  |  |  |  |  | 7.6 µg/mL (≈ 18.6 µM) | 7.6 µg/mL (≈ 18.6 µM) | 7.6 µg/mL (≈ 18.6 µM) |
| COc1c(CC=C(C)C)c(O)cc2c1[C@@H]1Oc3c(ccc(O)c3CC=C(C)C)[C@@H]1CO2 | 50 µg/mL (≈ 118 µM) |  |  |  |  |  |  | 7.6 µg/mL (≈ 18 µM) | 7.6 µg/mL (≈ 18 µM) | 7.6 µg/mL (≈ 18 µM) |
